From publication PMC2748101, “Transcriptome analysis of the responses of Staphylococcus aureus to antimicrobial peptides and characterization of the roles of vraDE and vraSR in antimicrobial resistance” (BMC Genomics, 2009) come the findings set out here.

Assay [1] concerns ΔvraSR/ RN4220. To be noted: Mueller-Hinton broth, 16-24 h, 37°C, two-fold dilution series, performed twice.
For assay [2], the system named is S. aureus RN4220. To be noted: Mueller-Hinton broth, 16-24 h, 37°C, two-fold dilution series, performed twice.
Assay [3] concerns S. aureus Newman. Briefly: qRT-PCR of gene induction in treated wild-type cells. To be noted: 10 min; for Fold induction SA0205 / Fold induction groEL / Fold induction prsA / Fold induction vraD: 5 × MIC (temporin-L-NH2 subinhibitory 2 μg/ml, pentaglycine 20 μg/ml), treated/untreated, mean of three experiments (SD). In kind it is cell-based, Staphylococcus aureus. For orientation: Quantitative PCR measures a nucleic acid by following its amplification.

In assay [4] the test system is ΔvraSR/S. aureus Newman. To be noted: for Difference in MIC (increased sensitivity), ΔvraSR mutant versus wild-type / MIC: Mueller-Hinton broth; for MIC: ΔvraSR/S. aureus Newman, 16-24 h, 37°C, two-fold dilution series, performed twice; for Effect of the ΔvraSR mutation on sensitivity: MIC, 100%, 50% (LL-37, nisin, Pep5) or 25% (hBD3) Mueller-Hinton broth.
Assay [5] relates to ΔvraDE/ RN4220. To be noted: Mueller-Hinton broth, 16-24 h, 37°C, two-fold dilution series, performed twice.
The subject of assay [6] is ΔvraDE/S. aureus Newman. To be noted: Mueller-Hinton broth; for MIC: ΔvraDE/S. aureus Newman, 16-24 h, 37°C, two-fold dilution series, performed twice.
For assay [7], the system named is S. aureus Newman.
The test system of assay [8] is wild-type S. aureus Newman. Type of assay: cell-based, Staphylococcus aureus.
Assay [9] deals with ΔvraSR/S. aureus Newman. Kind of assay: microbe, parasite or virus in culture. To be noted: Staphylococcus aureus.
Assay [10] deals with S. aureus RN4220. Briefly: microbe, parasite or virus in culture. To be noted: Staphylococcus aureus.
Assay [11] relates to ΔvraDE/ RN4220. Briefly: microbe, parasite or virus in culture. To be noted: Staphylococcus aureus.
Assay [12] relates to ΔvraSR/ RN4220. Kind of assay: microbe, parasite or virus in culture. To be noted: Staphylococcus aureus.
In assay [13] the test system is ΔvraDE/S. aureus Newman. Kind of assay: microbe, parasite or virus in culture. To be noted: Staphylococcus aureus.
Where [14] appears, read: S. aureus Newman, Mueller-Hinton broth, 16-24 h, 37°C, two-fold dilution series, performed twice.

In brackets after ≈: the same amount, converted by molar mass. Like-named read-outs stand apart in the source and are kept apart here. Where a SMILES comes first, the peptide text is derived from it. Bridges are numbered along the chain shown (N, C = ends). Where no end group is shown, it is not given here. [ ]: non-standard residue; d: D form. The star is where a group is joined. Ileψ(thiazoline)Cys = CC[C@H](C)[C@H](N)C1=N[C@H](C(=O)*)CS1; dOrn = NCCC[C@@H](N)C(=O)O

In the case of `CC[C@H](C)[C@H](N)C1=N[C@H](C(=O)N[C@@H](CC(C)C)C(=O)N[C@H](CCC(=O)O)C(=O)N[C@H](C(=O)N[C@H]2CCCCNC(=O)[C@H](CC(N)=O)NC(=O)[C@@H](CC(=O)O)NC(=O)[C@H](Cc3cnc[nH]3)NC(=O)[C@@H](Cc3ccccc3)NC(=O)[C@H]([C@@H](C)CC)NC(=O)[C@@H](CCCN)NC2=O)[C@@H](C)CC)CS1` [Bacitracin] ({Ileψ(thiazoline)Cys}-L[dE]IK[dOrn]I[dF]H[dD]N; lactam 4-C), the MIC against ΔvraSR/ RN4220 [1] came out at 5 µg/mL (≈ 3.51 µM); against S. aureus RN4220 [2], 20 µg/mL (≈ 14.1 µM); in the assay on ΔvraSR/S. aureus Newman [4], 5 µg/mL (≈ 3.51 µM); in the assay with ΔvraDE/ RN4220 [5], 2.5 µg/mL (≈ 1.76 µM); in the assay on ΔvraDE/S. aureus Newman [6] it was 2.5 µg/mL (≈ 1.76 µM); with S. aureus Newman [7] (setting [14]), 20 µg/mL (≈ 14.1 µM). Besides, the “Fold induction SA0205” value with S. aureus Newman [3] is 51.4 (0.8) fold; in the assay with S. aureus Newman [3] (listed as bacitracin), 30-50 fold. Moreover, the “Fold induction groEL” value in the assay with S. aureus Newman [3] is listed as 3.6 (0.1) fold. For the same compound, the results for the “Fold induction prsA” value in the assay with S. aureus Newman [3] and with S. aureus Newman [3] (listed as bacitracin) were 27.9 (4.5) fold and 30-50 fold, respectively. Moreover, the “Fold induction vraD” value is 467.5 (15.3) fold with S. aureus Newman [3] and approximately 500 fold in the assay on S. aureus Newman [3] (listed as bacitracin). Further, the “Difference in MIC (increased sensitivity), ΔvraSR mutant versus wild-type” value in the assay with ΔvraSR/S. aureus Newman [4] was 4 fold. For the same compound, the “Difference in MIC, ΔvraDE mutant versus wild-type” value in the assay on ΔvraDE/S. aureus Newman [6] is “about 10 fold”.
Consider `CCCCCCCCCC(=O)N[C@@H](Cc1c[nH]c2ccccc12)C(=O)N[C@H](CC(N)=O)C(=O)N[C@@H](CC(=O)O)C(=O)N[C@@H]1C(=O)NCC(=O)N[C@@H](CCCN)C(=O)N[C@@H](CC(=O)O)C(=O)N[C@H](C)C(=O)N[C@@H](CC(=O)O)C(=O)NCC(=O)N[C@H](CO)C(=O)N[C@@H]([C@H](C)CC(=O)O)C(=O)N[C@@H](CC(=O)c2ccccc2N)C(=O)O[C@@H]1C` [Daptomycin], for which the MIC against ΔvraSR/ RN4220 [1], against S. aureus RN4220 [2], with ΔvraSR/S. aureus Newman [4], in the assay with ΔvraDE/ RN4220 [5], against ΔvraDE/S. aureus Newman [6] and in the assay with S. aureus Newman [7] (setting [14]) was 2.5 µg/mL (≈ 1.54 µM) each time. Also, in the assay on ΔvraSR/S. aureus Newman [4], the “Effect of the ΔvraSR mutation on sensitivity” value (“Effect of the ΔvraSR mutation” below) is reported as “did not affect the sensitivity”.
For the compound `O=C(O)CN(CCOCCOCCN(CC(=O)O)CC(=O)O)CC(=O)O` [EGTA], the “Growth of wild-type strain in the presence of the antimicrobial” value (shortened to “Growth of wild-type strain”) in assay [8] is recorded as “grew significantly”.
As to `CN[C@H](CC(C)C)C(=O)N[C@H]1C(=O)N[C@@H](CC(N)=O)C(=O)N[C@H]2C(=O)N[C@H]3C(=O)N[C@H](C(=O)N[C@H](C(=O)O)c4cc(O)cc(O)c4-c4cc3ccc4O)[C@H](O)c3ccc(c(Cl)c3)Oc3cc2cc(c3O[C@@H]2O[C@H](CO)[C@@H](O)[C@H](O)[C@H]2O[C@H]2C[C@](C)(N)[C@H](O)[C@H](C)O2)Oc2ccc(cc2Cl)[C@H]1O` [Vancomycin], the MIC with ΔvraSR/S. aureus Newman [9] amounted to 1 µg/mL (≈ 0.69 µM); against S. aureus RN4220 [10], 1 µg/mL (≈ 0.69 µM); against ΔvraDE/ RN4220 [11] it was 1 µg/mL (≈ 0.69 µM); against ΔvraSR/ RN4220 [12] it was 0.5 µg/mL (≈ 0.345 µM); in the assay with ΔvraDE/S. aureus Newman [13] it was 1 µg/mL (≈ 0.69 µM); with S. aureus Newman [7], 1 µg/mL (≈ 0.69 µM).
With `CO/N=C(\C(=O)N[C@@H]1C(=O)N2C(C(=O)O)=C(COC(C)=O)CS[C@H]12)c1csc(N)n1` [cefotaxime], the “Growth of wild-type strain” value in assay [8] was “grew significantly”.
For the compound `CN(C)CCCN1c2ccccc2Sc2ccc(Cl)cc21` [chlorpromazine], in [8], the “Growth of wild-type strain” value is reported as “grew significantly”.
As to “A(D-Glu)K(D-Ala)GGGGGA(D-Glu)K(D-Ala) [Pentaglysin]”, the “Induction of vraD, SA0205, prsA and groEL (in words)” value in the assay with S. aureus Newman [3] (20 μg/ml) is given as “did not induce any of the four genes”. Further, in the assay on S. aureus Newman [3], the “Fold induction SA0205” value was 1.3 (0.1) fold, the “Fold induction groEL” value is given as 1.1 (0.0) fold, the “Fold induction prsA” value is 1.3 (0.0) fold and the “Fold induction vraD” value is listed as 1.0 (0.0) fold. Besides, the “Antimicrobial activity at the concentration used” value in the assay with S. aureus Newman [7] (20 μg/ml) is recorded as “not antimicrobial”.
For the compound FVQWFSKFLGRIL-NH2 [Temporin L-NH2], the MIC against ΔvraSR/ RN4220 [1] was found to be 3 µg/mL; with S. aureus RN4220 [2], 3 µg/mL; against ΔvraSR/S. aureus Newman [4], 6 µg/mL; in the assay on ΔvraDE/ RN4220 [5], 3 µg/mL; in the assay with ΔvraDE/S. aureus Newman [6], 6 µg/mL; with S. aureus Newman [7] (setting [14]), 6 µg/mL.
On to “KNLRRIIRKIIHIIKKYG-NH2 [Ovispirin-1-NH2]”, for which the MIC against ΔvraSR/ RN4220 [1] came out at 10 µg/mL; in the assay with S. aureus RN4220 [2], 20 µg/mL; in the assay with ΔvraSR/S. aureus Newman [4], 10 µg/mL; against ΔvraDE/ RN4220 [5], 20 µg/mL; in the assay with ΔvraDE/S. aureus Newman [6] it was 20 µg/mL; in the assay with S. aureus Newman [7] (setting [14]), 20 µg/mL.
In the case of KNLRRIIRKIIHIIKKYG-OH [Ovispirin-1], the MIC against ΔvraSR/ RN4220 [1], with S. aureus RN4220 [2], against ΔvraSR/S. aureus Newman [4], in the assay with ΔvraDE/ RN4220 [5], with ΔvraDE/S. aureus Newman [6] and against S. aureus Newman [7] (setting [14]) was 20 µg/mL each time. Moreover, the “Fold induction SA0205” value with S. aureus Newman [3] was 5.1 (1.0) fold. Further, in the assay on S. aureus Newman [3], the “Fold induction groEL” value is on record as 2.5 (0.5) fold. In addition, the “Fold induction prsA” value in the assay with S. aureus Newman [3] is listed as 7.2 (1.6) fold. In the assay on S. aureus Newman [3], the “Fold induction vraD” value is 3.7 (0.5) fold. In addition, the “Effect of the ΔvraSR mutation” value with ΔvraSR/S. aureus Newman [4] is listed as “did not affect the sensitivity”.
With “Nisin: lantibiotic (ITSISLCTPGCKTGALMGCNMKTATCHCSIHVSK; also: lantibiotic, modified residues and thioether rings not given here; UniProt P13068 24-57, looked up)”, the MIC against S. aureus RN4220 [2] and in the assay with S. aureus Newman [7] (setting [14]) was 6.25 µg/mL each time. Moreover, in the assay with ΔvraSR/S. aureus Newman [4], the “Effect of the ΔvraSR mutation” value was “did not affect the sensitivity”.
In the assay on ΔvraSR/ RN4220 [1], Teicoplanin registered an MIC of 0.06 µg/mL. Moreover, the MIC against S. aureus RN4220 [2] turned out to be 0.25 µg/mL. Also, in the assay on S. aureus Newman [3], the “Fold induction SA0205” value is listed as 35.7 (6.9) fold, the “Fold induction groEL” value is 3.0 (0.3) fold, the “Fold induction prsA” value was 32.1 (4.1) fold and the “Fold induction vraD” value is on record as 2.5 (0.3) fold. For the same compound, in the assay with ΔvraSR/S. aureus Newman [4], the “Difference in MIC (increased sensitivity), ΔvraSR mutant versus wild-type” value is listed as 4 fold and the MIC is 0.125 µg/mL. In the assay on ΔvraDE/S. aureus Newman [6], the MIC is 0.5 µg/mL. Further, the MIC in the assay with S. aureus Newman [7] (setting [14]) stood at 0.5 µg/mL.
